# Measurements as given in ChEMBL document CHEMBL1255239, “Increases in SLT2 expression and chitin content are associated with incomplete killing of Candida glabrata by caspofungin” (2008).
# Activity calls are given as the source filed them. The rule behind the calls is not given here.
# What was measured:
# Nakaseomyces glabratus [1] = experiment: Antifungal activity against slt2 deficient Candida glabrata 200989 assessed as log reduction in bacterial count at 16 ug/ml by time-kill analysis; format: functional
# Nakaseomyces glabratus [2] = experiment: Increase in slt2 gene expression in Candida glabrata 200989 at 0.125 to 16 ug/ml after 12 hrs by RT-PCR analysis; format: functional, organism-based
# Nakaseomyces glabratus [3] = experiment: Increase in CHS3 gene expression in Candida glabrata 200989 at 0.125 to 16 ug/ml after 180 mins by RT-PCR analysis relative to control; format: functional
# Nakaseomyces glabratus [4] = experiment: Antifungal activity against Candida glabrata 200989 assessed as log reduction in bacterial count at 0.125 to 16 ug/ml by time-kill analysis; format: functional
# Nakaseomyces glabratus [5] = experiment: Increase in slt2 gene expression in Candida glabrata 200989 at 0.125 to 16 ug/ml after 180 mins by RT-PCR analysis relative to control; format: functional
# Nakaseomyces glabratus [6] = experiment: Increase in chitin content in Candida glabrata 200989 at 0.125 to 16 ug/ml after 12 hrs relative to control; format: functional
# Nakaseomyces glabratus [7] = experiment: Antifungal activity against slt2 deficient Candida glabrata 200989 assessed as log reduction in bacterial count at 1 ug/ml by time-kill analysis; format: functional
# Nakaseomyces glabratus [8] = experiment: Increase in slt2 gene expression in Candida glabrata 200989 at 0.125 to 16 ug/ml after 10 mins by RT-PCR analysis relative to control; format: functional
# Nakaseomyces glabratus [9] = experiment: Antifungal activity against Candida glabrata 200989 at 0 to 32 ug/ml by XTT […] assay; format: functional, organism-based
# Nakaseomyces glabratus [10] = experiment: Increase in chitin content in slt2 deficient Candida glabrata 200989 at 0.125 to 16 ug/ml after 12 hrs; format: functional, organism-based
# Nakaseomyces glabratus [11] = experiment: Antifungal activity against Candida glabrata 200989 at 0.125 to 16 ug/ml by time-kill analysis; format: functional, organism-based
# Nakaseomyces glabratus [12] = experiment: Antifungal activity against slt2 deficient Candida glabrata 200989 assessed as log reduction in bacterial count at 0.125 ug/ml by time-kill analysis; format: functional
# Nakaseomyces glabratus [13] = experiment: Increase in CHS3 gene expression in slt2 deficient Candida glabrata 200989 at 0.125 to 16 ug/ml after 180 mins by RT-PCR analysis; format: functional, organism-based
structure (smiles),measurement,setting,value
CC[C@H](C)C[C@H](C)CCCCCCCCC(=O)N[C@H]1C[C@@H](O)[C@@H](NCCN)NC(=O)[C@@H]2[C@@H](O)CCN2C(=O)[C@H]([C@H](O)CCN)NC(=O)[C@H]([C@H](O)[C@@H](O)c2ccc(O)cc2)NC(=O)[C@@H]2C[C@@H](O)CN2C(=O)[C@H]([C@@H](C)O)NC1=O [CASPOFUNGIN],log10cfu,Nakaseomyces glabratus [1],4.2 /ml
same,Activity,Nakaseomyces glabratus [2],inactive
same,fold change (FC),Nakaseomyces glabratus [3],>2
same,log10cfu,Nakaseomyces glabratus [4],1.6 /ml
same,fold change (FC),Nakaseomyces glabratus [5],>=3.8
same,fold change (FC),Nakaseomyces glabratus [6],>3.5
same,log10cfu,Nakaseomyces glabratus [7],4.2 /ml
same,fold change (FC),Nakaseomyces glabratus [8],>2
same,Activity,Nakaseomyces glabratus [9],inactive
same,Activity,Nakaseomyces glabratus [10],inactive
same,Activity,Nakaseomyces glabratus [11],inactive
same,log10cfu,Nakaseomyces glabratus [12],2.6 /ml
same,Activity,Nakaseomyces glabratus [13],inactive
